Assay results as given in patent US20030109051A1, “Spin trap for use in biological systems” (RANDOX LABORATORIES LTD, priority 2001, published 2003).
“Also recorded” adds a separate entry of the source.

Experiments:
[1] = Reaction of nitric oxide with spin traps, ESR time course (chemical system); details: for trapping of nitric oxide (spin trap for nitric oxide): chemical system, spin trap in toluene, NO-saturated water
Protocol: ESR spectra were obtained using a prototype spectrometer (Jeol (U.K.) Ltd., Welwyn Garden City, England) equipped with a TED11 cylindrical cavity. Samples were analysed at room temperature in a WG-LC-11 quartz flat cell (Wilmad-Glass, Buena, N.J.). In general, the instrument parameters were: microwave frequency 9.2 GHz, microwave power 4 mW, centre field (CF) 336.7 mT, sweep width (SW)±5 mT, number of data points 4095, modulation frequency 100 kHz. For the spin traps reacted with nitric oxide: sweep time (ST) 150 s, time constraint (TC) 0.3 s, modulation width (MW) 0.2 mT. A JEOL ES-DM1 digital manganese oxide marker (0.03 mm of the glass tube inserted per unit on the dial setting) with a dial setting of 500 was used to ensure reproducibility between samples and to identify the position of the signals in the microwave field.
Samples of DBBNB, DMNB and TMNB were weighed into vacutainers, which were then evacuated Toluene and Tris-HCl buffer, 0.01 M, pH 7.4, were deoxygenated by bubbling with nitrogen gas for 15 min. Deoxygenated toluene was added to DBBNB, DMNB and TMNB, using a gas-tight syringe, to give a final concentration of 0.15 M in the reaction mixture.
The apparatus shown in FIG. 5 was flushed with nitrogen for 15 min. The vacutainer containing deionised water (4 ml) was then connected to the system and flushed with nitrogen for a further 15 min, to remove any oxygen present in the system, and therefore to prevent the formation of nitrogen dioxide. The NO gas was bubbled through the deionised water via the system for 45 min. The small amount of nitrogen dioxide present in the pressurised NO container was removed by bubbling through two bottles of 5M NaOH. The gas was then bubbled through a scrubbing bottle containing deionised water to remove any alkaline aerosol contamination. Any excess of NO after the deionised water step was bubbled through a scrubbing bottle containing 1M potassium permanganate/1M NaOH to prevent excess NO escaping from the fumehood. The concentration of NO in the resulting NO-saturated water was taken to be 2.0 mM. […]

[2] = Spin trapping of nitric oxide in whole blood using DMNB (ESR)
Protocol: This may be due to the possibility that any NO present or produced by live leucocytes in whole blood may react with thiol groups to form S-nitrosothiols and consequently be not trapped by DMNB. […] Lipopolysaccharide (LPS), which activates cell function, was also used in order to stimulate the cells to increase production of NO. As NEM may be toxic to cells, it was added i) at the same time as LPS and ii) 3.5 hours after the addition of LPS.
Peripheral blood was taken from a healthy volunteer into a vacutainer containing EDTA. After mixing, 1 ml of the blood was dispensed into each reaction vacutainer by a syringe, as quickly as possible (under 5 min).
DMNB (2) 0.5406 g was dissolved in 16 ml of deoxygenated toluene (by bubbling through nitrogen gas) to make a 0.25 M solution. 700 μl of the solution was added to each reaction mixture to make a final concentration of 0.1 M. A NO solution was made by bubbling nitric oxide gas through deoxygenated water for 45 min. The resulting NO solution (2 mM) was diluted with deoxygenated water to give 10, 35 and 50 nM solutions. An NEM solution (0. 3 M) was prepared by dissolving 0.0751 g of NEM in deoxygenated water. NEM solution (0.3 M), in amounts of 20, 40 and 80 μl, was added to the reaction mixtures to give a concentration, in 1 ml of blood, of 6, 12 and 24 mM. LPS (1 mg) was dissolved in 1 ml of PBS, 0.01 M, pH 7.4. The working stock solution is 100 μg/ml, diluted with the same buffer. The working stock solution of 10 μl was added to the reaction mixture to give a 1 μg/ml of blood. All transfer of reagents was done by gastight syringe through rubber stopper. The difference in volume due to the addition of NEM and LPS was compensated for by addition of deoxygenated water.
NO solution, blood without NEM nor LPS and PBS (0.01 M, pH 7.4) as controls were added to DMNB in toluene directly. NEM without LPS was added to blood immediately prior to addition of DMNB in toluene. When LPS was added to blood alone, the mixture of blood and LPS was incubated at room temperature for 3.5 hour before addition to DMNB in toluene. When both NEM and LPS were added to blood, NEM was either added to the blood together with LPS or added 3.5 hour later (Gust before addition of DMNB). When the DMNB in toluene was added, the reaction mixtures were incubated at room temperature on a roller for 2 hour to ensure effective extraction.
The reaction mixture was then analysed by ESR spectrometry (RE1X, Jeol). Individual results are shown in FIG. 6, and have been reassessed, for comparison purposes, in FIG. 7.

| Compound | reaction time of DBNBS with NO ([1]; comparison value, conditions and source not given) | trapping of nitric oxide (spin trap for nitric oxide) [1] | DMNB-NO adduct ESR signal intensity ([2]; LPS alone (1 μg/ml blood, 3.5 hour) before DMNB) | DMNB-NO adduct ESR signal intensity ([2]; NEM (6, 12, 24 mM) added to blood before DMNB, increase proportional to NEM concentration) | DMNB-NO adduct ESR signal ([2]; both LPS and NEM added to blood) | DMNB-NO adduct ESR signal ([2]; peripheral blood incubated with DMNB in toluene, no NEM, no LPS) |
| --- | --- | --- | --- | --- | --- | --- |
| O=Nc1c(Br)cc(S(=O)(=O)[O-])cc1Br.[Na+] [DBNBS, 3,5-dibromo-4-nitrosobenzene sulphonate, sodium salt, reference compound] | approximately 50 hr | – | – | – | – | – |
| Cc1cccc(C)c1N=O [DMNB, 2,6-Dimethylnitrosobenzene] | – | shown to trap nitric oxide | did not Increase the signal intensity | increase in signal intensity | significant increase | did not produce a detectable DMNB-NO adduct signal; also recorded: very little signal was detected |
| Cc1cc(C)c(N=O)c(C)c1 [TMNB, 2,4,6-Trimethylnitrosobenzene] | – | shown to trap nitric oxide | – | – | – | – |
